# Assay results reported in PMC9036655 (RSC Advances, 2021).
# Experiments:
# M. tuberculosis H37Rv = test: Antimycobacterial activity against M. tuberculosis H37Rv; format: cell-based, Mycobacterium tuberculosis; settings: for inhibition at 50 µg/mL / inhibition at 20 µg/mL: Mycobacterium tuberculosis, H37RV; for inhibition at 50 µg/mL: read-out: % inhibition 50 μg mL^−1, M. tuberculosis H37Rv, 50 μg mL^−1; for inhibition at 20 µg/mL: read-out: % inhibition 20 μg mL^−1, M. tuberculosis H37Rv; for inhibition at 20 µg/mL / % inhibition 20 μg mL^−1: 20 μg mL^−1
# A549 cells = test: Cytotoxicity, MTT assay, A549 cells; format: cell-based, Human; settings: for IC50: Homo sapiens, A549, 72 h, read-out: IC50 A549; for Selectivity index A549: IC50(A549)/MIC M. tb.
# Vero cells = test: Cytotoxicity, MTT assay, Vero cells; format: cell-based, African green monkey; settings: IC50(Vero)/MIC M. tb.
Molecule,inhibition at 50 µg/mL (M. tuberculosis H37Rv) [%],inhibition at 20 µg/mL (M. tuberculosis H37Rv) [%],other results
"4-Methyl-3-(((1-(4-(trifluoromethoxy)benzoyl)piperidin-4-yl)amino)methyl)-5,6,7,8-tetrahydroquinolin-2(1H)-one [6d10]",,,"MIC (M. tuberculosis H37Rv; M. tuberculosis H37Rv, MIC90, average of three measurements): >50 µg/mL"
"Cc1[nH]c(=O)c(CNC(=O)c2ccc([N+](=O)[O-])s2)c2c1CCC2 [6a1, N-((1-Methyl-3-oxo-3,5,6,7-tetrahydro-2H-cyclopenta[c]pyridin-4-yl)methyl)-5-nitrothiophene-2-carboxamide]",53,,
"Cc1[nH]c(=O)c(CNC(=O)c2ccc(F)nc2)c2c1CCC2 [6a2, 6-Fluoro-N-((1-methyl-3-oxo-3,5,6,7-tetrahydro-2H-cyclopenta[c]pyridin-4-yl)methyl)nicotinamide]",14,,
"COc1cc(OC)cc(-c2ccc(C(=O)NCc3c4c(c(C)[nH]c3=O)CCCC4)cc2)c1 [6b6, 3′,5′-Dimethoxy-N-((1-methyl-3-oxo-2,3,5,6,7,8-hexahydroisoquinolin-4-yl)methyl)-[1,1′-biphenyl]-4-carboxamide]",,,IC50 (A549 cells): > 100 µg/mL; Selectivity index A549 (A549 cells): >33; Selectivity index Vero (Vero cells): >16
"Cc1[nH]c(=O)c(CNC(=O)c2ccc(Cl)nc2)c2c1CCCC2 [6b24, 6-Chloro-N-((1-methyl-3-oxo-2,3,5,6,7,8-hexahydroisoquinolin-4-yl)methyl)nicotinamide]",,98.3,
"Cc1[nH]c(=O)c(CNC(=O)c2ccc(Br)nc2)c2c1CCCC2 [6b25, 6-Bromo-N-((1-methyl-3-oxo-2,3,5,6,7,8-hexahydroisoquinolin-4-yl)methyl)nicotinamide]",,98.9,
"Cc1[nH]c(=O)c(CNC(=O)c2ccc(F)nc2)c2c1CCCC2 [6b26, 6-Fluoro-N-((1-methyl-3-oxo-2,3,5,6,7,8-hexahydroisoquinolin-4-yl)methyl)nicotinamide]",,94.1,IC50 (A549 cells): > 100 µg/mL; Selectivity index A549 (A549 cells): >63; Selectivity index Vero (Vero cells): >31
"Cc1ccc(C(=O)NCc2c3c(c(C)[nH]c2=O)CCCC3)cn1 [6b27, 6-Methyl-N-((1-methyl-3-oxo-2,3,5,6,7,8-hexahydroisoquinolin-4-yl)methyl)nicotinamide]",,98.6,
"Cc1[nH]c(=O)c(CNC(=O)c2ccc([N+](=O)[O-])nc2)c2c1CCCC2 [6b28, N-((1-Methyl-3-oxo-2,3,5,6,7,8-hexahydroisoquinolin-4-yl)methyl)-6-nitronicotinamide]",,98.9,
"Cc1[nH]c(=O)c(CNC(=O)c2ccc([N+](=O)[O-])o2)c2c1CCCC2 [6b29, N-((1-Methyl-3-oxo-2,3,5,6,7,8-hexahydroisoquinolin-4-yl)methyl)-5-nitrofuran-2-carboxamide]",,100,IC50 (A549 cells): > 100 µg/mL; Selectivity index A549 (A549 cells): >35; Selectivity index Vero (Vero cells): >17
"Cc1[nH]c(=O)c(CNC(=O)c2cc([N+](=O)[O-])co2)c2c1CCCC2 [6b30, N-((1-Methyl-3-oxo-2,3,5,6,7,8-hexahydroisoquinolin-4-yl)methyl)-4-nitrofuran-2-carboxamide]",,78.2,
"Cc1[nH]c(=O)c(CNC(=O)c2ccc(Br)o2)c2c1CCCC2 [6b31, 5-Bromo-N-((1-methyl-3-oxo-2,3,5,6,7,8-hexahydroisoquinolin-4-yl)methyl)furan-2-carboxamide]",,97.7,
"Cc1[nH]c(=O)c(CNC(=O)c2ccc([N+](=O)[O-])s2)c2c1CCCC2 [6b32, N-((1-Methyl-3-oxo-2,3,5,6,7,8-hexahydroisoquinolin-4-yl)methyl)-5-nitrothiophene-2-carboxamide]",,96.4,
"Cc1[nH]c(=O)c(CNC(=O)c2ccc(C(F)(F)F)o2)c2c1CCCC2 [6b33, N-((1-Methyl-3-oxo-2,3,5,6,7,8-hexahydroisoquinolin-4-yl)methyl)-5-(trifluoromethyl)furan-2-carboxamide]",,98.3,IC50 (A549 cells): > 100 µg/mL; Selectivity index A549 (A549 cells): >50; Selectivity index Vero (Vero cells): >25
"Cc1[nH]c(=O)c(CNC(=O)c2cn[nH]c2)c2c1CCCC2 [6b35, N-((1-Methyl-3-oxo-2,3,5,6,7,8-hexahydroisoquinolin-4-yl)methyl)-1H-pyrazole-4-carboxamide]",,94.6,
"Cc1[nH]c(=O)c(CNC(=O)c2ccno2)c2c1CCCC2 [6b36, N-((1-Methyl-3-oxo-2,3,5,6,7,8-hexahydroisoquinolin-4-yl)methyl)isoxazole-5-carboxamide]",,25.1,
"Cc1[nH]c(=O)c(CNC(=O)c2ccc(Br)nc2)c2c1CCCCC2 [6c1, 6-Bromo-N-((1-methyl-3-oxo-3,5,6,7,8,9-hexahydro-2H-cyclohepta[c]pyridin-4-yl)methyl)nicotinamide]",33,,
"Cc1c2c([nH]c(=O)c1CNC(=O)c1ccc([N+](=O)[O-])s1)CCCC2 [6d5, N-((4-Methyl-2-oxo-1,2,5,6,7,8-hexahydroquinolin-3-yl)methyl)-5-nitrothiophene-2-carboxamide]",100,,
"COc1cc(OC)cc(C(=O)NCc2c(C)c3c([nH]c2=O)CCCC3)c1 [6d6, 3,5-Dimethoxy-N-((4-methyl-2-oxo-1,2,5,6,7,8-hexahydroquinolin-3-yl)methyl)benzamide]",100,,

Molecule,inhibition at 50 µg/mL (M. tuberculosis H37Rv) [%],inhibition at 20 µg/mL (M. tuberculosis H37Rv) [%],other results
"Cc1c2c([nH]c(=O)c1CNC(=O)c1ccc(C(F)(F)F)nc1Cl)CCCC2 [6d7, 2-Chloro-N-((4-methyl-2-oxo-1,2,5,6,7,8-hexahydroquinolin-3-yl)methyl)-6-(trifluoromethyl)nicotinamide]",99,,
"Cc1c2c([nH]c(=O)c1CNC(=O)c1ccc(-c3ccc(C(F)(F)F)nc3)cc1)CCCC2 [6d9, N-((4-Methyl-2-oxo-1,2,5,6,7,8-hexahydroquinolin-3-yl)methyl)-4-(6-(trifluoromethyl)pyridin-3-yl)benzamide]",18,,
"COc1cc(OC)cc(-c2ccc(C(=O)NCc3c(C)cc(C4CC4)[nH]c3=O)cc2)c1 [7a2, N-((6-Cyclopropyl-4-methyl-2-oxo-1,2-dihydropyridin-3-yl)methyl)-3′,5′-dimethoxy-[1,1′-biphenyl]-4-carboxamide]",,21,
"COc1cc(OC)cc(-c2ccc(C(=O)NCc3c(C)cc(-c4ccccc4)[nH]c3=O)cc2)c1 [7b2, 3′,5′-Dimethoxy-N-((4-methyl-2-oxo-6-phenyl-1,2-dihydropyridin-3-yl)methyl)-[1,1′-biphenyl]-4-carboxamide]",,33,
"Cc1cc(C)c(CNC(=O)c2ccc([N+](=O)[O-])o2)c(=O)[nH]1 [8a1, N-((4,6-Dimethyl-2-oxo-1,2-dihydropyridin-3-yl)methyl)-5-nitrofuran-2-carboxamide]",,75.3,
"CCc1cc(CC)c(CNC(=O)c2ccc([N+](=O)[O-])o2)c(=O)[nH]1 [8a3, N-((4,6-Diethyl-2-oxo-1,2-dihydropyridin-3-yl)methyl)-5-nitrofuran-2-carboxamide]",,98.1,
"Cc1cc(C)c(CNC(=O)c2ccc(C(F)(F)F)cc2)c(=O)[nH]1 [8a4, N-((4,6-Dimethyl-2-oxo-1,2-dihydropyridin-3-yl)methyl)-4-(trifluoromethyl)benzamide]",,87.6,
"CCc1cc(CC)c(CNC(=O)c2ccc(C(F)(F)F)nc2)c(=O)[nH]1 [8a5, N-((4,6-Diethyl-2-oxo-1,2-dihydropyridin-3-yl)methyl)-6-(trifluoromethyl)nicotinamide]",,94.4,
"Cc1c(CNC(=O)c2ccc(C(F)(F)F)nc2)c(=O)[nH]c2ccccc12 [9a1, N-((4-Methyl-2-oxo-1,2-dihydroquinolin-3-yl)methyl)-6-(trifluoromethyl)nicotinamide]",2,,
"COc1cc(OC)cc(-c2ccc(C(=O)NCc3c(C)c4ccccc4[nH]c3=O)cc2)c1 [9a2, 3′,5′-Dimethoxy-N-((4-methyl-2-oxo-1,2-dihydroquinolin-3-yl)methyl)-[1,1′-biphenyl]-4-carboxamide]",15,,
"Cc1c(CNC(=O)c2ccc(-c3ccc(C(F)(F)F)nc3)cc2)c(=O)[nH]c2ccccc12 [9a3, N-((4-Methyl-2-oxo-1,2-dihydroquinolin-3-yl)methyl)-4-(6-(trifluoromethyl)pyridin-3-yl)benzamide]",13,,
"Cc1c(CNC(=O)c2cnc(C(F)(F)F)nc2)c(=O)[nH]c2ccccc12 [9a4, N-((4-Methyl-2-oxo-1,2-dihydroquinolin-3-yl)methyl)-2-(trifluoromethyl)pyrimidine-5-carboxamide]",3,,
"Cc1[nH]c(=O)c(CNCc2ccc(C(F)(F)F)cc2)c2c1CCCC2 [10a1, 1-Methyl-4-(((4-(trifluoromethyl)benzyl)amino)methyl)-5,6,7,8-tetrahydroisoquinolin-3(2H)-one]",,65.7,
"Cc1[nH]c(=O)c(CNS(=O)(=O)c2ccc(C(F)(F)F)nc2)c2c1CCCC2 [10a2, N-((1-Methyl-3-oxo-2,3,5,6,7,8-hexahydroisoquinolin-4-yl)methyl)-6-(trifluoromethyl)pyridine-3-sulfonamide]",,92.7,
"Cc1[nH]c(=O)c(C(=O)Nc2ccc(C(F)(F)F)cc2)c2c1CCCC2 [10a4, 1-Methyl-3-oxo-N-(4-(trifluoromethyl)phenyl)-2,3,5,6,7,8-hexahydroisoquinoline-4-carboxamide]",,36.8,
"Cc1[nH]c(=O)c(CNC(=O)Cc2ccc(C(F)(F)F)cc2)c2c1CCCC2 [10a5, N-((1-Methyl-3-oxo-2,3,5,6,7,8-hexahydroisoquinolin-4-yl)methyl)-2-(4-(trifluoromethyl)phenyl)acetamide]",,99.3,
"NNC(=O)c1ccncc1 [Isoniazid, reference compound]",98.9,98.9,% inhibition 20 μg mL^−1 (M. tuberculosis H37Rv; M. tuberculosis H37Rv): 99.4%
"N-((6-Ethyl-4-methyl-2-oxo-1,2-dihydropyridin-3-yl)methyl)-5-nitrofuran-2-carboxamide [8a2]",,,% inhibition 20 μg mL^−1 (M. tuberculosis H37Rv; M. tuberculosis H37Rv): 98.2%
